Measurements published in PubChem BioAssay (NCI).
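Where inhibition never reached the appropriate level, the endpoint shown equals the highest concentration tested. Otherwise, values were interpolated linearly from a five-concentration, 48-hour dose response in 96-well plates. TGI marks complete inhibition of growth.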

Test system: DLD-1 colon
Assay: growth of human tumour cells (NCI), 48 h

SMILES	TGI [µM]
COc1cccc2c1c1ccc3c(c1n2C)C(=O)C=CC3=O	31.2
COc1cc(/C=C2\C(=O)N(C(=O)Cc3ccccc3)N=C2C)cc(OC)c1OC	> 100
C=C(C)C12CC3CC(/C(=N/O)C(C1)/C3=N\O)[C@@]2(C)O (stereo partly drawn)	> 100
